Measured values as given in patent US20240398822A1, “METHODS AND COMPOSITIONS FOR TREATING AND MANAGING ALZHEIMER'S DISEASE” (Pharmatrophix, Inc., priority 2021, published 2024).

System: Aβ42, Aβ40
Assay: Phase IIa CSF AD core biomarkers Aβ42 and Aβ40
Assay type: in vivo, human
Text: CSF samples were obtained at screening Visit and final Visit via lumbar puncture to determine levels of tau, p-tau, Aβ40, Aβ42 and AChE activity as an initial set of CSF biomarkers. Aliquots of CSF were made available for emerging CSF biomarker methods such as measurement of additional biomarkers including neurofilaments light chain, neurogranin, SNAP-25, synaptotagmin, YKL-40, TREM2, tau oligomers and for measurement of drug level in selected patients based on the time period between last dose of drug and CSF sampling (FIG. 25 and FIG. 58).
Baseline CSF samples are obtained prior to administration via lumbar puncture. These samples are used to determine levels of tau, p-tau, Aβ40, Aβ42, AChE, neurofilament light chain, SNAP-25, synaptotagmin-1, neurogranin, sTREM, and YKL-40. Aliquots of CSF are also made available for emerging CSF biomarker methods such as measurement of tau oligomers and for measurement of drug level in selected patients based on time period between last dose of the salt of Formula (II) and CSF sampling. […] Many of these biomarkers can also be measured in blood or plasma. The change in values over the time period from pre-treatment to post-treatment are of particular importance. […] Absolute levels at single time points of neurofilament light chain, SNAP-25, synaptotagmin-1, neurogranin, sTREM, and YKL-40 in CSF or blood or plasma are of less value given differences in assay techniques and wide variation in absolute levels within normal subjects and within and across AD subjects. In contrast, absolute levels of Aβ42 and 40 at baseline are useful biomarkers indicating the presence of amyloid pathology as low levels of Aβ42 and 40 at a given time point are consistent with amyloid pathology.

CC[C@H](C)[C@H](N)C(=O)NCCN1CCOCC1 [LM11A-31-BHS, Tris[(2S,3S)-2-amino-3-methyl-N-(2-morpholinoethyl)pentanamide] tetra(monohydrogensulfate), monosulfate]
CSF Ab 42 change in the drug group (combined drug group, 26 weeks, p=0.003): went down by a significant amount
CSF Ab 42, difference between placebo and drug (combined drug group, p=0.03): significant
effect on levels of Aβ42 and 40 (daily treatment, CSF): ability to lower levels of Aβ42 and 40
